Data: patent US20220313622A1, “PHYTOCANNABINOIDS FOR PREVENTING OR TREATING NON-ALCOHOLIC FATTY LIVER DISEASE, DYSLIPIDEMIA, AND TYPE 2 DIABETES” (YISSUM RESEARCH DEVELOPMENT COMPANY OF THE HEBREW …, priority 2019, published 2022)

Key:
[1] = tested on: human hepatoma HepG2 cells; test: Oleate:Palmitate-induced lipid accumulation in hepatocytes (Nile-Red); type: cell-based; settings: CBD 20 μM; 0.3 mM oleate:palmitate 2:1; 24 hr; FIG. 1
Experimental: To test whether CBG and/or CBD have the ability to reduce lipid accumulation in hepatocytes, we have utilized an in vitro model of fat accumulation in hepatocytes. Briefly, human hepatoma HepG2 cells were maintained at 37° C. in 5% CO2 in DMEM medium supplemented with 10% FCS, 2 mM 1-glutamine, 1 mM sodium pyruvate, 100 U/mL penicillin and […] streptomycin. Free fatty acids (2:1, molar ratio, oleic and palmitic acids) were mixed with bovine serum albumin (BSA). Cells were incubated with fatty acid-BSA complex in FCS-free culture medium at 0.3 mM final concentration of fatty acid and 1% of BSA. Control cell cultures were incubated with medium containing the vehicle. Compounds were tested in a range of concentrations (as detailed in each figure) in the presence/absence of fatty acids. The synergistic effect between two compounds was also tested once validating their individual effect. After 24 hr of incubation with the compounds, the cells were washed, incubated with 1 μg/mL mixture of Nile-Red/Hoechst solution for 15 mins at 37° C. protected from light. Fluorescence was measured by the Cytation-3 plate reader at ex:488 nm/em:550 for Nile-Red and Hoechst, respectively. Results were normalized to total protein levels of each well, and presented as a change in the accumulation of lipids in comparison with Vehicle-treated group.

[2] = tested on: high-fat diet-induced obese mice; test: Lipid balance (circulating triglycerides and cholesterol) in high-fat diet-induced obese mice; type: in vivo, mouse; settings: 28 days ip; for serum triglycerides: CBD 10 mg/kg/day, FIG. 8A
Experimental: (§1) Next, the inventors tested whether the isolated and combined effect of phytocannabinoids has the ability to reverse fatty liver (hepatic steatosis) and improve metabolism in high-fat diet-induced obese mouse. Briefly, six weeks old, male C57Bl/6J mice were fed ad libitum with a high-fat diet (HFD; D12492; 60% of calories from fat, 20% from protein, and 20% from carbohydrates; Research Diets) or a mouse standard diet (STD; NIH no. 31 rodent diet) for 14 weeks. Then, the mice were treated for 28 days with CBD (10 mg/kg/day, ip), CBG (25 mg/kg/day, ip), CBD+CBG (10 mg/kg/day+25 mg/kg/day, ip respectively) or vehicle (EtOH:cremophor:saline; 1:1:18). The mouse groups were labeled as defined here: mice on a STD treated with vehicle (STD-Veh), mice on a HFD treated with vehicle (HFD-Veh), mice on a HFD treated with CBD (HFD-CBD), mice on a HFD treated with CBG (HFD-CBG), and mice on a HFD treated with CBD+CBG (HFD-CBD+CBG).
Lipid balance was assessed by evaluating the levels of low-density lipoprotein (LDL)-cholesterol, total cholesterol and triglycerides by using Cobas C111 Chemistry Analyzer (Roche, Germany).

[3] = tested on: high-fat diet-induced obese mice; test: Hepatic steatosis in high-fat diet-induced obese mice; type: in vivo, mouse; settings: 28 days ip, CBG 25 mg/kg/day; for HFD-induced hepatic steatosis (liver triglyceride levels, fat vacuoles and ballooning in hepatocytes): CBD 10 mg/kg/day, alone or combined, FIGS. 5A, B
Experimental: as §1
Hepatic steatosis (Fatty liver) was measured by (i) quantifying the amount of triglycerides and cholesterol in the liver by using a specific lipid extraction method followed by colorimetric chemical analyses using the Cobas C111 Chemistry Analyzer (Roche, Germany), and (ii) evaluating the reversal of fatty liver by histology. Briefly, paraffin-embedded liver sections (5 tiM) were be used to evaluate hepatic morphology (using H & E staining).

[4] = tested on: high-fat diet-induced obese mice; test: Glucose and insulin homeostasis in high-fat diet-induced obese mice; type: in vivo, mouse; settings: 28 days ip, CBG 25 mg/kg/day; for HFD-induced hyperglycemia (fasting blood glucose levels) / glucose tolerance (intraperitoneal glucose tolerance test) / serum insulin levels (hyperinsulinemia): CBD 10 mg/kg/day; for HFD-induced hyperglycemia (fasting blood glucose levels) / glucose tolerance (intraperitoneal glucose tolerance test): alone or combined; for HFD-induced hyperglycemia (fasting blood glucose levels): FIG. 6A; for glucose tolerance (intraperitoneal glucose tolerance test): FIG. 6B, C; for serum insulin levels (hyperinsulinemia): FIG. 7A
Experimental: as §1
Glucose and insulin homeostasis was assessed by (i) measuring fasting blood glucose (Elite glucometer, Bayer, Germany) and serum insulin (Ultra-Sensitive Mouse Insulin ELISA kit, EMD Millipore, MA) levels, (ii) evaluating Homeostatic Model Assessment for Insulin Resistance (HOMA-IR), and (iii) performing intraperitoneal glucose tolerance test.

[5] = tested on: mice; settings: cited from earlier work
[6] = tested on: rats on high-fat diets; settings: cited from earlier work
[7] = tested on: high-fat diet-induced obese mice; test: Antiobesity effect (fat and lean mass, EchoMRI) in high-fat diet-induced obese mice; type: in vivo, mouse; settings: 28 days ip; CBG 25 mg/kg/day; FIG. 9B, C
Experimental: as §1
Antiobesity effect was assessed by measuring body weight. Total fat and lean masses were determined at the end of the treatment by EchoMRI-100 (Echo Medical Systems LLC, Houston Tex.).

[8] = tested on: obese mice; settings: cited from earlier work

| Compound | lipid accumulation in hepatocytes [1] | serum triglycerides ([2]; CBG 25 mg/kg/day) | HFD-induced hepatic steatosis (liver triglyceride levels, fat vacuoles and ballooning in hepatocytes) [3] | HFD-induced hyperglycemia (fasting blood glucose levels) [4] | glucose tolerance (intraperitoneal glucose tolerance test) [4] | serum insulin levels (hyperinsulinemia) [4] | development of alcohol-induced hepatosteatosis [5] | weight gain [6] | total circulating cholesterol levels ([2]; CBG 25 mg/kg/day alone or with CBD 10 mg/kg/day, FIG. 8B) | LDL-Cholesterol levels ([2]; CBG 25 mg/kg/day, FIG. 8C) | liver cholesterol levels ([3]; FIG. 5C) | fat mass [7] | lean mass [7] | HOMA-IR ([4]; FIG. 7B) | insulin sensitivity [8] | triglyceride (TG) accumulation within the livers [8] |
| --- | --- | --- | --- | --- | --- | --- | --- | --- | --- | --- | --- | --- | --- | --- | --- | --- |
| C=C(C)[C@@H]1CCC(C)=C[C@H]1c1c(O)cc(CCCCC)cc1O [CBD, cannabidiol, reference compound] | significantly reduce lipid accumulation | Reduction | significantly attenuated | significantly normalized | significant improvement | ineffective in reducing hyperinsulinemia | inhibits | inhibits weight gain | – | – | – | – | – | – | – | – |
| CCCCCc1cc(O)c(C/C=C(\C)CCC=C(C)C)c(O)c1 [CBG, cannabigerol] | – | Reduction | significantly attenuated | significantly normalized | significant improvement | trend toward reduction | – | – | significantly reduced | significant reduction | trend toward reduction | significant reduction | increased | normalization | – | – |
| CCCc1cc(O)c2c(c1)OC(C)(C)[C@@H]1CCC(C)=C[C@@H]21 [THCV, Δ^9-tetrahydrocannabivarin] | – | – | – | – | – | – | – | – | – | – | – | – | – | – | improves insulin sensitivity | decreases |
